Test results reported in patent publication US20100152108A1, “METHODS AND COMBINATION THERAPIES FOR TREATING ALZHEIMER'S DISEASE” (priority 2006, published 2010).
Values joined by “and” are separate entries in the source; they are usually repeats but may differ in a detail not shown here. Identical values can stand only once. Like-named read-outs stand apart in the source and are kept apart here.

Key:
[1] = test system: patients with mild to moderate Alzheimer's disease
Experimental: Patients were evaluated with the ADAS-cog (primary endpoint), CIBIC-plus, MMSE, NPI and ADL at baseline, week 12 and week 26. The Alzheimer's Disease Assessment Scale Cognitive Subscale (ADAS-cog) score assesses memory and cognition over time. The Mini Mental State Exam (MMSE) also assesses memory and cognition. The Alzheimer's Disease Cooperative Study-Clinical Global Impression of Change (ADCS-CGIC, also called CIBIC-plus) measures the patient's global status over time. It takes into account memory, cognition, behavior and motor disturbance. The Neuropsychiatric Inventory (NPI) measures the patients' behavior and psychiatric disturbance in 12 domains including delusions, hallucinations, agitation/aggression, depression/dysphoria, anxiety, elation/euphoria, apathy/indifference, disinhibitions, irritability/lability, motor disturbance, nighttime behaviors, and appetite/eating. An ADL inventory assesses the impact of cognitive impairment on activities of daily living. […] All subjects enrolled were included in the intention-to-treat analysis. Thus, the analysis includes all randomized patients, even those who discontinued the study prior to study completion.

[2] = test system: scopolamine-treated rats; experiment: Two-trial object recognition paradigm in scopolamine-treated rats; format: in vivo, Sprague-Dawley rats; details: for Memory Performance (N-F, difference in time spent with the novel object and familiar object): scopolamine 0.3 mg/kg i.p., mean ± SEM
Experimental: The two-trial object recognition paradigm developed by Ennaceur and Delacour in the rat was used as a model of episodic memory.
Male Sprague-Dawley rats between six and seven weeks old, weighing between 220-300 grams were obtained from Centre d′Elevage (Rue Janvier, B.P. 55, Le Genest-Saint-Isle 53940, France). The animals were housed in groups of 2 to 4 in polypropylene cages (with a floor area of 1032 cm^2) under standard conditions: at room temperature (22±2° C.), under a 12 hour light/12 hour dark cycle, with food and water provided ad libitum. Animals were permitted to acclimate to environmental conditions for at least 5 days before therapy begins, and were numbered on their tails with indelible marker.
The experimental arena was a square wooden box (60 cm×60 cm×40 cm) painted dark blue, with 15 cm×15 cm black squares under a clear plexiglass floor. The arena and objects placed inside the arena were cleaned with water between each trial to eliminate any odor trails left by rats. The arena was placed in a dark room illuminated only by halogen lamps directed towards the ceiling in order to produce a uniformly dim light in the box of approximately 60 lux. The day before testing, animals were allowed to freely explore the experimental arena for three minutes in the presence of two objects (habituation). Animals to be tested were placed in the experimental room at least 30 minutes before testing.
On the day of the experiment, animals were submitted to two trials separated by an interval of 120 minutes. During the first, or acquisition, trial (T1), rats were placed in the arena, which was prepared with two identical objects. The time required for each animal to complete 15 seconds of object exploration was determined, with a cut-off time of four minutes. […] Rats were placed back in the arena for three minutes, and exploration of both objects was determined. Locomotor activity of rats (number of times rats cross grid lines visible under the clear plexiglass floor) was scored for during T1 and T2. […]
The following parameters were measured: (1) time required to achieve 15 seconds of object exploration during T1; (2) locomotor activity during T1 (number of crossed lines); (3) time spent in active exploration of the familiar object during T2 (TFamiliar); (4) time spent in active exploration of the novel object during T2 (TNovel); and (5) locomotor activity during T2 (number of crossed lines). The difference between time spent in active exploration of the novel object during T2 and time spent in active exploration of the familiar object during T2 (ΔTNovel−TFamiliar) was evaluated. The recognition index [(TNovel−TFamiliar/(TNovel+TFamiliar)] was derived, and the percentage of animals with TNovel−TFamiliar>5 seconds was assessed. […]

[3] = test system: amyloid beta 42 (Aβ42); details: cultured human cells and animal models; cited from earlier work
[4] = test system: human neuroblastoma SK-N-SH; details: cited from earlier work
[5] = test system: release of acetylcholine from the cortex; details: microdialysis; cited from earlier work
[6] = week 26, dimebon 20 mg orally three times a day vs placebo

Question: Which “all other gastrointestinal side effects combined” value ([1]; in vivo) does the source give for `Cc1ccc2c(c1)c1c(n2CCc2ccc(C)nc2)CCN(C)C1.Cl.Cl` [Dimebon, 2,8-dimethyl-5-(2-(6-methyl-3-pyridyl)-ethyl)-2,3,4,5-tetrahydro-1H-pyrido(4,3-b)indol dihydrochloride] here?
Answer: < 3%

Question: And the “patients who experienced serious adverse events” value ([1]; in vivo)?
Answer: 3.4%

Question: And the tolerability ([1]; in vivo)?
Answer: well-tolerated

Question: And the “patients who experienced serious adverse events” value ([1]; in vivo, po)?
Answer: 2.2%

Question: What about the “most common adverse event: dry mouth” value ([1]; in vivo, dihydrochloride) of the same compound?
Answer: 18% and 13.5%

Question: What about the “ADL mean drug-placebo difference” value [1, 6] of the same compound?
Answer: 3.35 units

Question: What about the “CIBIC-plus mean drug-placebo difference” value [1, 6] of the same compound?
Answer: 0.61 units

Question: And the “MMSE mean drug-placebo difference” value [1, 6]?
Answer: 2.24 units

Question: What about the “NPI mean drug-placebo difference” value [1, 6] of the same compound?
Answer: 3.57 units

Question: What about the “ADAS-cog mean drug-placebo difference” value ([1]; week 26, dimebon 20 mg orally three times a day vs placebo, intention-to-treat) of the same compound?
Answer: 4.0 units

Question: And the “change in the 5 endpoints, mean baseline scores compared with week 26 scores” value ([1]; week 26 vs baseline, ADAS-cog, CIBIC-plus, MMSE, NPI, ADL)?
Answer: significant improvements in all 5 endpoints

Question: And the “ADAS-cog mean drug-placebo difference” value ([1]; week 52, dimebon vs placebo)?
Answer: 6.9 units

Question: What about the “ADL mean drug-placebo difference” value ([1]; week 52, dimebon vs placebo) of the same compound?
Answer: 5.2 units

Question: What about the “CIBIC-plus mean drug-placebo difference” value ([1]; week 52, dimebon vs placebo) of the same compound?
Answer: 0.80 units

Question: And the “MMSE mean drug-placebo difference” value ([1]; week 52, dimebon vs placebo)?
Answer: 2.3 units

Question: And the “NPI mean drug-placebo difference” value ([1]; week 52, dimebon vs placebo)?
Answer: 3.5 units

Question: And the “change in the 5 endpoints, mean baseline scores compared with week 52 scores” value ([1]; week 52 vs baseline, ADAS-cog, CIBIC-plus, MMSE, NPI, ADL)?
Answer: improvements in all 5 endpoints

Question: What about the “effect at doses below the maximally effective dose, tested individually” value ([2]; dimebon 2.5 mg/kg oral, donepezil 0.03 mg/kg intraperitoneal) of the same compound?
Answer: only partially effective

Question: What about the maximally effective dose ([2]; oral) of the same compound?
Answer: 5 mg/kg

Question: What about the “Memory Performance (N-F, difference in time spent with the novel object and familiar object)” value ([2]; vehicle i.p. + Dimebon 2.5 mg/kg p.o.) of the same compound?
Answer: 2.57 ± 0.95 s

Question: What about the “Memory Performance (N-F, difference in time spent with the novel object and familiar object)” value ([2]; vehicle i.p. + Dimebon 5 mg/kg p.o.) of the same compound?
Answer: 5.00 ± 2.09 s

Question: Which “levels of amyloid beta 42 (Aβ42)” value [3] does the source give for `C[C@@H](C(=O)O)c1ccc(-c2ccccc2)c(F)c1` [Flurizan] here?
Answer: reduces levels

Question: Which “apoptosis-induced levels of holo-APP protein” value [4] does the source give for `C#CCN[C@@H]1CCc2ccc(OC(=O)N(C)CC)cc21` [Ladostigil] here?
Answer: reduces apoptosis-induced levels of holo-APP protein

Question: And the “phospho PKC and release of the nonamyloidogenic amyloid protein” value [4]?
Answer: increases phospho PKC and the release of the nonamyloidogenic amyloid protein

Question: And the apoptotic cell death ([4]; in response to long term culture)?
Answer: reduces apoptotic cell death

Question: Which “release of acetylcholine from the cortex” value [5] does the source give for `CN[C@@H](C)C/C=C/c1cncc(OC(C)C)c1` [TC-1734] here?
Answer: enhances the release of acetylcholine
